Laboratory results published in PubChem BioAssay AID192 (DTP/NCI, 2004).
Values joined by “and” are separate entries in the source; they are usually repeats but may differ in a detail not shown here. Identical values can stand only once. Inconclusive results and toxic doses are left out. Square brackets hold non-standard residues; d marks the D form. Peptide text beside a SMILES is read from it. * marks the point of attachment. ξ: configuration not given here. Cbz = O=C(OCc1ccccc1)*; ξV = CC(C)C(N)C(=O)O

System: BDF1 mice, B16 melanoma ip, median survival T/C
Test: NCI In Vivo Anticancer Drug Screen. Data for tumor model B16 Melanoma (intraperitoneal) in B6D2F1 (BDF1) mice
Settings: endpoint: median survival time, higher = longer survival
In short: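 Mice with transplantable tumors; drug vs vehicle groups; endpoint survival or tumor size; value = T/C.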

[1] = dose: 100.0 mg/kg/injection, schedule: Q01DX009 (ip), vehicle: saline
[2] = dose: 25.0 mg/kg/injection, schedule: Q01DX009 (ip), vehicle: saline with Tween-80
[3] = dose: 50.0 mg/kg/injection, schedule: Q01DX009 (ip), vehicle: saline with Tween-80
[4] = dose: 100.0 mg/kg/injection, schedule: Q01DX009 (ip), vehicle: saline with Tween-80
[5] = dose: 12.5 mg/kg/injection, schedule: Q01DX009 (ip), vehicle: Klucel (hydroxypropylcellulose) (HPC)
[6] = dose: 50.0 mg/kg/injection, schedule: Q01DX009 (ip), vehicle: Klucel (hydroxypropylcellulose) (HPC)
[7] = dose: 100.0 mg/kg/injection, schedule: Q01DX009 (ip), vehicle: Klucel (hydroxypropylcellulose) (HPC)
[8] = dose: 200.0 mg/kg/injection, schedule: Q01DX009 (ip), vehicle: Klucel (hydroxypropylcellulose) (HPC)
[9] = dose: 200.0 mg/kg/injection, schedule: Q01DX009 (ip), vehicle: saline with Tween-80
[10] = dose: 12.5 mg/kg/injection, schedule: Q01DX009 (ip), vehicle: saline with Tween-80
[11] = dose: 25.0 mg/kg/injection, schedule: Q01DX009 (ip), vehicle: saline
[12] = dose: 3.13 mg/kg/injection, schedule: Q01DX009 (ip), vehicle: saline with Tween-80
[13] = dose: 6.25 mg/kg/injection, schedule: Q01DX009 (ip), vehicle: saline with Tween-80
[14] = dose: 50.0 mg/kg/injection, schedule: Q01DX009 (ip), vehicle: saline
[15] = dose: 25.0 mg/kg/injection, schedule: Q01DX009 (ip), vehicle: Klucel (hydroxypropylcellulose) (HPC)
[16] = dose: 400.0 mg/kg/injection, schedule: Q01DX009 (ip), vehicle: Klucel (hydroxypropylcellulose) (HPC)
[17] = dose: 6.25 mg/kg/injection, schedule: Q01DX009 (ip), vehicle: Klucel (hydroxypropylcellulose) (HPC)

O=NN(CCF)C(=O)NC1C(O)CCCC1O (stereo not drawn) was tested, and the T/C (dose: 1.88 mg/kg/injection, schedule: Q01DX001 (ip), vehicle: saline) was 121 % of control, the T/C (dose: 7.5 mg/kg/injection, schedule: Q01DX001 (ip), vehicle: saline) was 199 % of control and the T/C (dose: 15.0 mg/kg/injection, schedule: Q01DX001 (ip), vehicle: saline) was 212 % of control. The T/C (dose: 30.0 mg/kg/injection, schedule: Q01DX001 (ip), vehicle: saline) was 263 % of control and the T/C (dose: 60.0 mg/kg/injection, schedule: Q01DX001 (ip), vehicle: saline) was 226 % of control.

In the case of CC(C)C(NC(=O)CNC(=O)CN)C(=O)O (stereo not drawn) (H-Gly-Gly-[ξV]-OH), the T/C [1] was 95 % of control, the T/C (dose: 100.0 mg/kg/injection, schedule: Q04DX003 (ip), vehicle: saline) was 100 % of control and the T/C (dose: 200.0 mg/kg/injection, schedule: Q01DX009 (ip), vehicle: saline) was 97 % of control. The T/C (dose: 200.0 mg/kg/injection, schedule: Q04DX003 (ip), vehicle: saline) was 97 % of control, the T/C (dose: 400.0 mg/kg/injection, schedule: Q01DX009 (ip), vehicle: saline) was 95 % of control and the T/C (dose: 400.0 mg/kg/injection, schedule: Q04DX003 (ip), vehicle: saline) was 95 % of control.

O=S(=O)(CCBr)CCBr was tested, and the T/C [2] was 93 % of control, the T/C [3] was 93 % of control and the T/C [4] was 98 % of control.

For O=C1CC2(C(=O)N1CN1CCCCC1)c1ccccc1-c1ccccc12, the T/C [5] was 114 % of control, the T/C [6] was 112 % of control and the T/C [7] was 112 % of control. The T/C [8] was 112 % of control.

For O=C1C=C(c2ccccc2)C(O)(c2ccccc2)C1 (stereo not drawn), the T/C [3] was 97 % of control, the T/C [4] was 97 % of control and the T/C [9] was 88 % of control.

O=C(/C(=C\c1ccccc1)CN1CCOCC1)c1ccc(Br)cc1 was tested, and the T/C [10] was 91 % of control, the T/C [2] was 94 % of control and the T/C [3] was 94 % of control. The T/C [4] was 89 % of control.

CCOc1nsc(OCC)n1 was tested, and the T/C (dose: 12.5 mg/kg/injection, schedule: Q04DX003 (ip), vehicle: distilled water + Tween-80) was 103 % of control, the T/C (dose: 25.0 mg/kg/injection, schedule: Q04DX003 (ip), vehicle: distilled water + Tween-80) was 96 % of control and the T/C (dose: 50.0 mg/kg/injection, schedule: Q04DX003 (ip), vehicle: distilled water + Tween-80) was 99 % of control. The T/C (dose: 100.0 mg/kg/injection, schedule: Q04DX003 (ip), vehicle: distilled water + Tween-80) was 98 % of control.

With CC(CN1CCN(CCOCCO)CC1)CN1c2ccccc2Sc2ccccc21 (stereo not drawn) the T/C (dose: 1.56 mg/kg/injection, schedule: Q01DX009 (ip), vehicle: saline) was 108 % of control, the T/C (dose: 3.12 mg/kg/injection, schedule: Q01DX009 (ip), vehicle: saline) was 97 % of control and the T/C (dose: 6.25 mg/kg/injection, schedule: Q01DX009 (ip), vehicle: saline) was 102 % of control. For the same compound, the T/C [11] was 100 % of control and 101 % of control.

In the case of OC(COC(c1ccccc1)(c1ccccc1)c1ccccc1)C(O)CC1SCCS1 (stereo not drawn), the T/C [12] was 107 % of control, the T/C [13] was 100 % of control and the T/C [10] was 103 % of control. For the same compound, the T/C [2] was 104 % of control.

With CC([NH-])C[NH-].[Cl][Pt+2][Cl] (stereo not drawn) the T/C (dose: 0.31 mg/kg/injection, schedule: Q01DX009 (ip), vehicle: saline) was 102 % of control, the T/C (dose: 0.31 mg/kg/injection, schedule: Q04DX003 (ip), vehicle: saline) was 89 % of control and the T/C (dose: 0.62 mg/kg/injection, schedule: Q01DX009 (ip), vehicle: saline) was 112 % of control. For the same compound, the T/C (dose: 0.62 mg/kg/injection, schedule: Q04DX003 (ip), vehicle: saline) was 100 % of control, the T/C (dose: 1.25 mg/kg/injection, schedule: Q01DX009 (ip), vehicle: saline) was 110 % of control and the T/C (dose: 1.25 mg/kg/injection, schedule: Q04DX003 (ip), vehicle: saline) was 107 % of control.

C#CCOCC(O)CCl (stereo not drawn) was tested, and the T/C [11] was 94 % of control, the T/C [14] was 105 % of control and the T/C [4] was 95 % of control. For the same compound, the T/C [1] was 89 % of control.

With C/C=C(\C)C(=O)N/N=C\c1cc(Cl)cc(Cl)c1O the T/C (dose: 25.0 mg/kg/injection, schedule: Q01DX009 (ip), vehicle: olive oil, sesame oil, peanut oil) was 88 % of control, the T/C (dose: 100.0 mg/kg/injection, schedule: Q01DX009 (ip), vehicle: olive oil, sesame oil, peanut oil) was 89 % of control and the T/C (dose: 200.0 mg/kg/injection, schedule: Q01DX009 (ip), vehicle: olive oil, sesame oil, peanut oil) was 86 % of control.

c1cc2cc3c(cc2cc1CC1NCCc2cc4c(cc21)OCO4)OCO3 (stereo not drawn) was tested, and the T/C [15] was 97 % of control, the T/C [6] was 89 % of control and the T/C [7] was 94 % of control.

Cc1cc(C)[c]([Hg][Cl])c(C)c1 was tested, and the T/C (dose: 1.5 mg/kg/injection, schedule: Q01DX009 (ip), vehicle: saline with Tween-80) was 110 % of control, the T/C (dose: 3.0 mg/kg/injection, schedule: Q01DX009 (ip), vehicle: saline with Tween-80) was 98 % of control and the T/C (dose: 6.0 mg/kg/injection, schedule: Q01DX009 (ip), vehicle: saline with Tween-80) was 99 % of control. For the same compound, the T/C [13] was 88 % of control.

For C(=Nc1ccc2c(c1)Cc1ccccc1-2)c1ccnc2ccccc12, the T/C [7] was 103 % of control, the T/C [8] was 100 % of control and the T/C [16] was 93 % of control.

With CC(=O)Oc1cccc(C)c1 the T/C [9] was 106 % of control.

In the case of O=C1C=CC(=O)c2c(O)c(CBr)c(CBr)c(O)c21, the T/C [17] was 102 % of control, the T/C [5] was 101 % of control and the T/C [15] was 100 % of control. The T/C [6] was 94 % of control.

In the case of CC(C)N(C(=O)COc1ccc(Cl)cc1)c1ccccc1, the T/C [6] was 86 % of control, the T/C [7] was 106 % of control and the T/C [8] was 86 % of control.

CCNCC#CCNCC was tested, and the T/C [14] was 107 % of control and the T/C [1] was 94 % of control.

For [N-]=[N+]=C1C(=O)NN=C1c1ccccc1, the T/C [7] was 105 % of control.

O=S(c1ccccc1)c1c(Cl)c(Cl)nc(Cl)c1Cl (stereo not drawn) was tested, and the T/C [17] was 94 % of control and the T/C [5] was 100 % of control.

CSc1ncnc2c1ncn2-n1cccc1 was tested, and the T/C [7] was 88 % of control, the T/C (dose: 100.0 mg/kg/injection, schedule: Q04DX003 (ip), vehicle: Klucel (hydroxypropylcellulose) (HPC)) was 100 % of control and the T/C [8] was 88 % of control. For the same compound, the T/C (dose: 200.0 mg/kg/injection, schedule: Q04DX003 (ip), vehicle: Klucel (hydroxypropylcellulose) (HPC)) was 100 % of control, the T/C [16] was 113 % of control and the T/C (dose: 400.0 mg/kg/injection, schedule: Q04DX003 (ip), vehicle: Klucel (hydroxypropylcellulose) (HPC)) was 100 % of control.

For O=C(COc1ccc(Cl)cc1)NCCc1ccccc1, the T/C [7] was 93 % of control, the T/C [8] was 103 % of control and the T/C [16] was 90 % of control.

With Cc1cc(Cc2ccc(N=C=O)c(C)c2)ccc1N=C=O the T/C [12] was 89 % of control, the T/C [13] was 92 % of control and the T/C [10] was 92 % of control and 102 % of control.

O=C(O)c1cc(-c2ccc(Cl)cc2)nc2c(Cl)cccc12 was tested, and the T/C [7] was 100 % of control.

CC(NC(=O)C(Cc1ccc(O)cc1)NC(=O)C(C)NC(=O)OCc1ccccc1)C(=O)O (stereo not drawn) (Cbz-Ala-Tyr-Ala-OH; configuration not given here) was tested, and the T/C [3] was 98 % of control, the T/C [4] was 93 % of control and the T/C [9] was 96 % of control. The T/C (dose: 400.0 mg/kg/injection, schedule: Q01DX009 (ip), vehicle: saline with Tween-80) was 92 % of control.

In the case of NNC(=O)Cc1nc2ccccc2[nH]c1=O, the T/C [6] was 96 % of control, the T/C [7] was 96 % of control and the T/C [8] was 90 % of control.
